#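 Here, GI50 denotes the concentration required for 50% inhibition of growth. TGI: total growth inhibition.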
# What was measured:
# Assay in all cases: NCI tumour cell line growth inhibition, 384-well format
# 786-0 renal = test system: 786-0 renal
# A498 renal = test system: A498 renal
# A549 NSCLC = test system: A549 NSCLC
# ACHN renal = test system: ACHN renal
# BT-549 breast = test system: BT-549 breast
# CAKI-1 renal = test system: CAKI-1 renal
# CCRF-CEM leukemia = test system: CCRF-CEM leukemia
# COLO 205 colon = test system: COLO 205 colon
# DU-145 prostate = test system: DU-145 prostate
# EKVX NSCLC = test system: EKVX NSCLC
# HCC-2998 colon = test system: HCC-2998 colon
# HCT-116 colon = test system: HCT-116 colon
# HCT-15 colon = test system: HCT-15 colon
# HL-60(TB) leukemia = test system: HL-60(TB) leukemia
# HOP-62 NSCLC = test system: HOP-62 NSCLC
# HOP-92 NSCLC = test system: HOP-92 NSCLC
# HS 578T breast = test system: HS 578T breast
# HT29 colon = test system: HT29 colon
# IGROV1 ovarian = test system: IGROV1 ovarian
# K-562 leukemia = test system: K-562 leukemia
# KM12 colon = test system: KM12 colon
# LOX IMVI melanoma = test system: LOX IMVI melanoma
# M14 melanoma = test system: M14 melanoma
# MALME-3M melanoma = test system: MALME-3M melanoma
# MCF7 breast = test system: MCF7 breast
# MDA-MB-231 breast = test system: MDA-MB-231 breast
# MDA-MB-435 melanoma = test system: MDA-MB-435 melanoma
# MDA-MB-468 breast = test system: MDA-MB-468 breast
# MOLT-4 leukemia = test system: MOLT-4 leukemia
# NCI-H226 lung = test system: NCI-H226 lung
# NCI-H23 lung = test system: NCI-H23 lung
# NCI-H322M lung = test system: NCI-H322M lung
# NCI-H460 NSCLC = test system: NCI-H460 NSCLC
# NCI-H522 lung = test system: NCI-H522 lung
# NCI/ADR-RES ovarian = test system: NCI/ADR-RES ovarian
# OVCAR-3 ovarian = test system: OVCAR-3 ovarian
# OVCAR-4 ovarian = test system: OVCAR-4 ovarian
# OVCAR-5 ovarian = test system: OVCAR-5 ovarian
# OVCAR-8 ovarian = test system: OVCAR-8 ovarian
# PC-3 prostate = test system: PC-3 prostate
# RPMI-8226 leukemia = test system: RPMI-8226 leukemia
# RXF 393 renal = test system: RXF 393 renal
# SF-268 CNS = test system: SF-268 CNS
# SF-295 CNS = test system: SF-295 CNS
# SF-539 CNS = test system: SF-539 CNS
# SK-MEL-2 melanoma = test system: SK-MEL-2 melanoma
# SK-MEL-28 melanoma = test system: SK-MEL-28 melanoma
# SK-MEL-5 melanoma = test system: SK-MEL-5 melanoma
# SK-OV-3 ovarian = test system: SK-OV-3 ovarian
# SN12C renal = test system: SN12C renal
# SNB-19 CNS = test system: SNB-19 CNS
# SNB-75 CNS = test system: SNB-75 CNS
# SR leukemia = test system: SR leukemia
# SW-620 colon = test system: SW-620 colon
# T-47D breast = test system: T-47D breast
# TK-10 renal = test system: TK-10 renal
# U251 glioblastoma = test system: U251 glioblastoma
# UACC-257 melanoma = test system: UACC-257 melanoma
# UACC-62 melanoma = test system: UACC-62 melanoma
smiles,measurement,setting,value
Cc1ccncc1N1CCN(c2ccnc(Cl)c2)C1=O,GI50,786-0 renal,> 100 µM
same,TGI,786-0 renal,> 100 µM
same,GI50,A498 renal,> 100 µM
same,TGI,A498 renal,> 100 µM
same,GI50,A549 NSCLC,> 100 µM
same,TGI,A549 NSCLC,> 100 µM
same,GI50,ACHN renal,> 100 µM
same,TGI,ACHN renal,> 100 µM
same,GI50,BT-549 breast,> 100 µM
same,TGI,BT-549 breast,> 100 µM
same,GI50,CAKI-1 renal,> 100 µM
same,TGI,CAKI-1 renal,> 100 µM
same,GI50,CCRF-CEM leukemia,> 100 µM
same,TGI,CCRF-CEM leukemia,> 100 µM
same,GI50,COLO 205 colon,> 100 µM
same,TGI,COLO 205 colon,> 100 µM
same,GI50,DU-145 prostate,> 100 µM
same,TGI,DU-145 prostate,> 100 µM
same,GI50,EKVX NSCLC,> 100 µM
same,TGI,EKVX NSCLC,> 100 µM
same,GI50,HCC-2998 colon,> 100 µM
same,TGI,HCC-2998 colon,> 100 µM
same,GI50,HCT-116 colon,> 100 µM
same,TGI,HCT-116 colon,> 100 µM
same,GI50,HCT-15 colon,> 100 µM
same,TGI,HCT-15 colon,> 100 µM
same,GI50,HL-60(TB) leukemia,> 100 µM
same,TGI,HL-60(TB) leukemia,> 100 µM
same,GI50,HOP-62 NSCLC,> 100 µM
same,TGI,HOP-62 NSCLC,> 100 µM
same,GI50,HOP-92 NSCLC,> 100 µM
same,TGI,HOP-92 NSCLC,> 100 µM
same,GI50,HS 578T breast,> 100 µM
same,TGI,HS 578T breast,> 100 µM
same,GI50,HT29 colon,> 100 µM
same,TGI,HT29 colon,> 100 µM
same,GI50,IGROV1 ovarian,> 100 µM
same,TGI,IGROV1 ovarian,> 100 µM
same,GI50,K-562 leukemia,> 100 µM
same,TGI,K-562 leukemia,> 100 µM
same,GI50,KM12 colon,> 100 µM
same,TGI,KM12 colon,> 100 µM
same,GI50,LOX IMVI melanoma,> 100 µM
same,TGI,LOX IMVI melanoma,> 100 µM
same,GI50,M14 melanoma,> 100 µM
same,TGI,M14 melanoma,> 100 µM
same,GI50,MALME-3M melanoma,> 100 µM
same,TGI,MALME-3M melanoma,> 100 µM
same,GI50,MCF7 breast,> 100 µM
same,TGI,MCF7 breast,> 100 µM
same,GI50,MDA-MB-231 breast,> 100 µM
same,TGI,MDA-MB-231 breast,> 100 µM
same,GI50,MDA-MB-435 melanoma,> 100 µM
same,TGI,MDA-MB-435 melanoma,> 100 µM
same,GI50,MDA-MB-468 breast,> 100 µM
same,TGI,MDA-MB-468 breast,> 100 µM
same,GI50,MOLT-4 leukemia,> 100 µM
same,TGI,MOLT-4 leukemia,> 100 µM
same,GI50,NCI-H226 lung,> 100 µM
same,TGI,NCI-H226 lung,> 100 µM
same,GI50,NCI-H23 lung,> 100 µM
same,TGI,NCI-H23 lung,> 100 µM
same,GI50,NCI-H322M lung,> 100 µM
same,TGI,NCI-H322M lung,> 100 µM
same,GI50,NCI-H460 NSCLC,> 100 µM
same,TGI,NCI-H460 NSCLC,> 100 µM
same,GI50,NCI-H522 lung,> 100 µM
same,TGI,NCI-H522 lung,> 100 µM
same,GI50,NCI/ADR-RES ovarian,> 100 µM
same,TGI,NCI/ADR-RES ovarian,> 100 µM
same,GI50,OVCAR-3 ovarian,> 100 µM
same,TGI,OVCAR-3 ovarian,> 100 µM
same,GI50,OVCAR-4 ovarian,> 100 µM
same,TGI,OVCAR-4 ovarian,> 100 µM
same,GI50,OVCAR-5 ovarian,> 100 µM
same,TGI,OVCAR-5 ovarian,> 100 µM
same,GI50,OVCAR-8 ovarian,> 100 µM
same,TGI,OVCAR-8 ovarian,> 100 µM
same,GI50,PC-3 prostate,> 100 µM
same,TGI,PC-3 prostate,> 100 µM
same,GI50,RPMI-8226 leukemia,> 100 µM
same,TGI,RPMI-8226 leukemia,> 100 µM
same,GI50,RXF 393 renal,> 100 µM
same,TGI,RXF 393 renal,> 100 µM
same,GI50,SF-268 CNS,> 100 µM
same,TGI,SF-268 CNS,> 100 µM
same,GI50,SF-295 CNS,> 100 µM
same,TGI,SF-295 CNS,> 100 µM
same,GI50,SF-539 CNS,> 100 µM
same,TGI,SF-539 CNS,> 100 µM
same,GI50,SK-MEL-2 melanoma,> 100 µM
same,TGI,SK-MEL-2 melanoma,> 100 µM
same,GI50,SK-MEL-28 melanoma,> 100 µM
same,TGI,SK-MEL-28 melanoma,> 100 µM
same,GI50,SK-MEL-5 melanoma,> 100 µM
same,TGI,SK-MEL-5 melanoma,> 100 µM
same,GI50,SK-OV-3 ovarian,> 100 µM
same,TGI,SK-OV-3 ovarian,> 100 µM
same,GI50,SN12C renal,> 100 µM
same,TGI,SN12C renal,> 100 µM
same,GI50,SNB-19 CNS,> 100 µM
same,TGI,SNB-19 CNS,> 100 µM
same,GI50,SNB-75 CNS,> 100 µM
same,TGI,SNB-75 CNS,> 100 µM
same,GI50,SR leukemia,> 100 µM
same,TGI,SR leukemia,> 100 µM
same,GI50,SW-620 colon,> 100 µM
same,TGI,SW-620 colon,> 100 µM
same,GI50,T-47D breast,> 100 µM
same,TGI,T-47D breast,> 100 µM
same,GI50,TK-10 renal,> 100 µM
same,TGI,TK-10 renal,> 100 µM
same,GI50,U251 glioblastoma,> 100 µM
same,TGI,U251 glioblastoma,> 100 µM
same,GI50,UACC-257 melanoma,> 100 µM
same,TGI,UACC-257 melanoma,> 100 µM
same,GI50,UACC-62 melanoma,> 100 µM
same,TGI,UACC-62 melanoma,> 100 µM

# Source: PubChem BioAssay (NCI)
